Measured values: patent US20240139221A1, “TREATMENT OF HPV-INDUCED NEOPLASIA” (priority 2022, published 2024)

Key:
[1] = Hygroscopicity by DVS at 25° C.; assay type: physicochemical; settings: DVS 25° C.; for D. (%) Cycle 1: Desorption cycle 1; for D. (%) Cycle 2: Desorption cycle 2; for S. (%) Cycle 1: Sorption cycle 1; for S. (%) Cycle 2: Sorption cycle 2
Method: Hygroscopicity was investigated by DVS at 25° C., using the following method: […]

[2] = Solubility in buffers, water and simulated vaginal fluid at 37° C.; settings: for pH of solution at 2 hrs: 37° C.; for solubility at 0.5 h / solubility at 2 h: 37 °C, thermodynamic from solid
Method: About 4 mg of Compound I Pattern 1 was added into 2 mL of buffer solution.
(§1) Solubility was tested in five media, pH 3.0 citrate buffer, pH 4.5 acetate buffer, pH 6.8 phosphate buffer, water, simulated vaginal fluid (pH 4.2) at 37° C. for 0.5 h and 2 h.
The salt amount used is equivalent to 10 mg anhydrous free base. […] The obtained clear solutions were analyzed by pH meter for pH, and solubility was determined by observation.
as §1

[3] = Tablet stability study (purity by HPLC); assay type: physicochemical
Method: Tablets were prepared using the excipients and excipient ratios shown in the first column of the following tables. The tablets were then stored under the conditions indicated and periodically sampled and tested for purity by HPLC.

[4] = Approximate solubility in solvents at 25° C. and 50° C., visual observation; assay type: physicochemical
Method: The maximum volume of each solvent added was 1 mL. Approximate solubility was determined by visual observation.
Maximum volume of each solvent added was 1 mL. Approximate solubility was determined by visual observation.

[5] = Bulk stability (accelerated stability, one week; HPLC and XRPD)
Method: Bulk stability: Accelerated stability experiments were conducted at 25° C./92% RH and 40° C./75% RH in an open container, 60° C. in a tight container for one week.
Samples were characterized by XRPD and HPLC and inspected for color change.
Accelerated stability experiments were conducted at 25° C./92% RH in an open container, at 40° C./75% RH in an open container, and at 60° C. in a tight container for one week.

[6] = acetate buffer, pH 4.5, aqueous buffer
[7] = citrate buffer, pH 3, aqueous buffer
[8] = phosphate buffer, pH 6.8, aqueous buffer
[9] = simulated vaginal fluid, pH 4.2, fassgf or other biorelevant
[10] = excipients Carbomer (49%) + Hydrated Dextrose (49%)
[11] = excipients Carbomer (49%) + Mannitol (49%)
[12] = excipients PC (49%) + Anhydrous Lactose (49%)
[13] = excipients PC (49%) + MCC (49%)
[14] = 25° C., 92% RH, open container, one week
[15] = 40° C., 75% RH, open container, one week
[16] = 60° C., tight container, one week

In the case of CCOC(=O)[C@H](C)NP(=O)(COCCn1cnc2c(OC)nc(N)nc21)OCc1ccccc1 (stereo partly drawn) [Compound I, ethyl(((2-(2-amino-6-methoxy-9H-purin-9-yl)ethoxy)methyl)(benzyloxy)-phosphoryl)-L-alaninate], the “D. (%) Cycle 1” value ([1]; 0% RH) is reported as 0.00%, the “D. (%) Cycle 1” value ([1]; 10% RH) is reported as 0.11% and the “D. (%) Cycle 1” value ([1]; 20% RH) is reported as 0.23%. The “D. (%) Cycle 1” value ([1]; 30% RH) was 0.47%, the “D. (%) Cycle 1” value ([1]; 40% RH) was 0.60% and the “D. (%) Cycle 2” value ([1]; 0% RH) was 0.19%. For the same compound, the “D. (%) Cycle 2” value ([1]; 10% RH) was 0.37%, the “D. (%) Cycle 2” value ([1]; 20% RH) was 0.57% and the “D. (%) Cycle 2” value ([1]; 30% RH) was 0.83%. The “D. (%) Cycle 2” value ([1]; 40% RH) was 1.09%, the “D. (%) Cycle 2” value ([1]; 50% RH) was 1.48% and the “D. (%) Cycle 2” value ([1]; 60% RH) was 1.96%. For the same compound, the “D. (%) Cycle 2” value ([1]; 70% RH) was 2.78%, the “D. (%) Cycle 2” value ([1]; 80% RH) was 4.33% and the “D. (%) Cycle 2” value ([1]; 90% RH) was 9.10%. For the same compound, the “D. (%) Cycle 2” value ([1]; 95% RH) was 14.32%, the “S. (%) Cycle 1” value ([1]; 0% RH) was 0.00% and the “S. (%) Cycle 1” value ([1]; 10% RH) was 0.08%. For the same compound, the “S. (%) Cycle 1” value ([1]; 20% RH) was 0.17%, the “S. (%) Cycle 1” value ([1]; 30% RH) was 0.28% and the “S. (%) Cycle 1” value ([1]; 40% RH) was 0.41%. For the same compound, the “S. (%) Cycle 1” value ([1]; 50% RH) was 0.61%, the “S. (%) Cycle 1” value ([1]; 60% RH) was 0.85% and the “S. (%) Cycle 1” value ([1]; 70% RH) was 1.14%. The “S. (%) Cycle 1” value ([1]; 80% RH) was 1.64%, the “S. (%) Cycle 1” value ([1]; 90% RH) was 4.27% and the “S. (%) Cycle 1” value ([1]; 95% RH) was 14.32%. For the same compound, the “S. (%) Cycle 2” value ([1]; 0% RH) was 0.19%, the “S. (%) Cycle 2” value ([1]; 10% RH) was 0.22% and the “S. (%) Cycle 2” value ([1]; 20% RH) was 0.30%. The “S. (%) Cycle 2” value ([1]; 30% RH) was 0.44%, the “S. (%) Cycle 2” value ([1]; 40% RH) was 0.62% and the “pH of solution at 2 hrs” value ([2]; Simulated vaginal fluid (pH adjusted with 0.2N NaOH)) was “(5.53)”. For the same compound, the “pH of solution at 2 hrs” value ([2]; Water) was “(7.55)”, the solubility at 0.5 h [2, 6] was > 2 mg/mL and the solubility at 2 h [2, 6] was > 2 mg/mL. For the same compound, the solubility at 0.5 h [2, 7] was > 2 mg/mL, the solubility at 2 h [2, 7] was > 2 mg/mL and the “pH of solution at 2 hrs” value ([2]; pH 3.0 100 mM citrate buffer) was “(2.98)”. The “pH of solution at 2 hrs” value ([2]; pH 4.5 50 mM acetate buffer) was “(4.50)”, the “pH of solution at 2 hrs” value ([2]; pH 6.8 50 mM phosphate buffer) was “(6.81)” and the solubility at 0.5 h [2, 8] was > 2 mg/mL. For the same compound, the solubility at 2 h [2, 8] was > 2 mg/mL, the solubility at 0.5 h [2, 9] was > 2 mg/mL and the solubility at 2 h [2, 9] was > 2 mg/mL. For the same compound, the solubility at 0.5 h ([2]; water) was > 2 mg/mL, the solubility at 2 h ([2]; water) was > 2 mg/mL and the “purity by HPLC, 0 months” value [3, 10] was 99.52. The “purity by HPLC, 1 month 25 C./60% RH” value [3, 10] was 82.44, the “purity by HPLC, 1 month 40 C./75% RH” value [3, 10] was 0.17 and the “purity by HPLC, 0 months” value [3, 11] was 98.87. For the same compound, the “purity by HPLC, 1 month 25 C./60% RH” value [3, 11] was 91.54, the “purity by HPLC, 1 month 40 C./75% RH” value [3, 11] was 6.75 and the “purity by HPLC, 0 months” value [3, 12] was 99.40. For the same compound, the “purity by HPLC, 1 month 25 C./60% RH” value [3, 12] was 95.98, the “purity by HPLC, 1 month 40 C./75% RH” value [3, 12] was 41.3 and the “purity by HPLC, 0 months” value [3, 13] was 98.64. The “purity by HPLC, 1 month 25 C./60% RH” value [3, 13] was 97.16, the “purity by HPLC, 1 month 40 C./75% RH” value [3, 13] was 46.11 and the “Solubility (mg/mL) 25° C.” value ([4]; Acetone) was >100 mg/mL. For the same compound, the “Solubility (mg/mL) 50° C.” value ([4]; Acetone) was >500 mg/mL, the “Solubility (mg/mL) 25° C.” value ([4]; Acetonitrile) was >100 mg/mL and the “Solubility (mg/mL) 50° C.” value ([4]; Acetonitrile) was >500 mg/mL. The “Solubility (mg/mL) 25° C.” value ([4]; Dichloromethane) was >100 mg/mL, the “Solubility (mg/mL) 50° C.” value ([4]; Dichloromethane) was >500 mg/mL and the “Solubility (mg/mL) 25° C.” value ([4]; Ethanol) was >100 mg/mL. For the same compound, the “Solubility (mg/mL) 50° C.” value ([4]; Ethanol) was >500 mg/mL, the “Solubility (mg/mL) 25° C.” value ([4]; Ethyl acetate (EA)) was >100 mg/mL and the “Solubility (mg/mL) 50° C.” value ([4]; Ethyl acetate (EA)) was >500 mg/mL. The “Solubility (mg/mL) 25° C.” value ([4]; Heptanes) was <2 mg/mL, the “Solubility (mg/mL) 50° C.” value ([4]; Heptanes) was <10 mg/mL and the “Solubility (mg/mL) 25° C.” value ([4]; Isopropanol (IPA)) was >100 mg/mL. For the same compound, the “Solubility (mg/mL) 50° C.” value ([4]; Isopropanol (IPA)) was >500 mg/mL, the “Solubility (mg/mL) 25° C.” value ([4]; Isopropyl acetate) was >100 mg/mL and the “Solubility (mg/mL) 50° C.” value ([4]; Isopropyl acetate) was >500 mg/mL. For the same compound, the “Solubility (mg/mL) 25° C.” value ([4]; Methanol) was >100 mg/mL, the “Solubility (mg/mL) 50° C.” value ([4]; Methanol) was >500 mg/mL and the “Solubility (mg/mL) 25° C.” value ([4]; Methyl ethyl ketone) was >100 mg/mL. The “Solubility (mg/mL) 50° C.” value ([4]; Methyl ethyl ketone) was >500 mg/mL, the “Solubility (mg/mL) 25° C.” value ([4]; Methyl t-butyl ether (MTBE)) was <2 mg/mL and the “Solubility (mg/mL) 50° C.” value ([4]; Methyl t-butyl ether (MTBE)) was <10 mg/mL. The “Solubility (mg/mL) 25° C.” value ([4]; Tetrahydrofuran) was >100 mg/mL, the “Solubility (mg/mL) 50° C.” value ([4]; Tetrahydrofuran) was 167 to 250 mg/mL and the “Solubility (mg/mL) 25° C.” value ([4]; Water) was 20 to 25 mg/mL. The “Solubility (mg/mL) 50° C.” value ([4]; Water) was 25 to 27 mg/mL, the XRPD after storage ([5]; 25° C., 84% RH, open container, 2 days) was “No change” and the “HPLC (purity) after storage” value [5, 14] was 98.5%. The XRPD after storage [5, 14] was “No change”, the “HPLC (purity) after storage” value [5, 15] was 95.2% and the XRPD after storage [5, 15] was “No change”. The “HPLC (purity) after storage” value [5, 16] was 98.5%, the XRPD after storage [5, 16] was “No change” and the “HPLC (purity), Initial” value ([5]; initial, before storage) was 98.7%.
